Key:
Test in all cases: post-emergence herbicidal activity, greenhouse
Type in all cases: in vivo
[1] = test system: Smartweed; conditions: Table I, 4 WAT
Method in brief: (§1)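 Plants grown from seed or perennial propagules in greenhouse soil pans were sprayed at two to three weeks with compound solution or suspension containing about 0.4% emulsifier, at the stated application rates. Injury relative to untreated controls was scored at approximately two and four weeks after treatment on a post-emergence activity index.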

[2] = test system: Sugar Beet; conditions: Table II
Method in brief: as §1

[3] = test system: Cocklebur
Method in brief: as §1

[4] = test system: Downy Brome
Method in brief: as §1

[5] = test system: Panicum Spp; conditions: Table II
Method in brief: as §1

[6] = test system: Wheat; conditions: Table II
Method in brief: as §1

[7] = test system: Hemp Sesbania; conditions: Table II
Method in brief: as §1

[8] = test system: Johnsongrass; conditions: Table I, 4 WAT
Method in brief: as §1

[9] = test system: Yellow Nutsedge; conditions: Table I, 4 WAT
Method in brief: as §1

[10] = test system: Rice; conditions: Table II
Method in brief: as §1

[11] = test system: Barnyardgrass
Method in brief: as §1

[12] = test system: Morningglory
Method in brief: as §1

[13] = test system: Quackgrass; conditions: Table I, 4 WAT
Method in brief: as §1

[14] = test system: Crabgrass; conditions: Table II
Method in brief: as §1

[15] = test system: Lambsquarters
Method in brief: as §1

[16] = test system: Wild Buckwheat; conditions: Table II
Method in brief: as §1

[17] = test system: Sorghum; conditions: Table II
Method in brief: as §1

[18] = test system: Velvetleaf
Method in brief: as §1

[19] = test system: Soybean; conditions: Table II
Method in brief: as §1

[20] = test system: Canada Thistle; conditions: Table I, 4 WAT
Method in brief: as §1

CSSN(CC#N)CP(=O)(Oc1ccccc1)Oc1ccccc1 [VII]
post-emergence herbicidal activity index ([1]; 5.6 kg/h): 2 (50-74% control)
post-emergence herbicidal activity index ([1]; 11.2 kg/h): 4 (100% control)
post-emergence herbicidal activity index ([2]; 2 WAT, 0.056 kg/h): 0 (0-24% control)
post-emergence herbicidal activity index ([2]; 2 WAT, 0.28 kg/h): 0 (0-24% control)
post-emergence herbicidal activity index ([2]; 2 WAT, 1.12 kg/h): 0 (0-24% control)
post-emergence herbicidal activity index ([2]; 2 WAT, 5.6 kg/h): 1 (25-49% control)
post-emergence herbicidal activity index ([2]; 4 WAT, 1.12 kg/h): 0 (0-24% control)
post-emergence herbicidal activity index ([2]; 4 WAT, 5.6 kg/h): 1 (25-49% control)
post-emergence herbicidal activity index ([3]; Table I, 4 WAT, 5.6 kg/h): 2 (50-74% control)
post-emergence herbicidal activity index ([3]; Table I, 4 WAT, 11.2 kg/h): 3 (75-99% control)
post-emergence herbicidal activity index ([3]; Table II, 2 WAT, 0.056 kg/h): 0 (0-24% control)
post-emergence herbicidal activity index ([3]; Table II, 2 WAT, 0.28 kg/h): 1 (25-49% control)
post-emergence herbicidal activity index ([3]; Table II, 2 WAT, 1.12 kg/h): 1 (25-49% control)
post-emergence herbicidal activity index ([3]; Table II, 2 WAT, 5.6 kg/h): 2 (50-74% control)
post-emergence herbicidal activity index ([3]; Table II, 4 WAT, 1.12 kg/h): 1 (25-49% control)
post-emergence herbicidal activity index ([3]; Table II, 4 WAT, 5.6 kg/h): 3 (75-99% control)
post-emergence herbicidal activity index ([4]; Table I, 4 WAT, 5.6 kg/h): 3 (75-99% control)
post-emergence herbicidal activity index ([4]; Table I, 4 WAT, 11.2 kg/h): 2 (50-74% control)
post-emergence herbicidal activity index ([4]; Table II, 2 WAT, 0.056 kg/h): 0 (0-24% control)
post-emergence herbicidal activity index ([4]; Table II, 2 WAT, 0.28 kg/h): 0 (0-24% control)
post-emergence herbicidal activity index ([4]; Table II, 2 WAT, 1.12 kg/h): 1 (25-49% control)
post-emergence herbicidal activity index ([4]; Table II, 2 WAT, 5.6 kg/h): 1 (25-49% control)
post-emergence herbicidal activity index ([4]; Table II, 4 WAT, 1.12 kg/h): 0 (0-24% control)
post-emergence herbicidal activity index ([4]; Table II, 4 WAT, 5.6 kg/h): 1 (25-49% control)
post-emergence herbicidal activity index ([5]; 2 WAT, 0.056 kg/h): 0 (0-24% control)
post-emergence herbicidal activity index ([5]; 2 WAT, 0.28 kg/h): 0 (0-24% control)
post-emergence herbicidal activity index ([5]; 2 WAT, 1.12 kg/h): 0 (0-24% control)
post-emergence herbicidal activity index ([5]; 2 WAT, 5.6 kg/h): 1 (25-49% control)
post-emergence herbicidal activity index ([5]; 4 WAT, 1.12 kg/h): 0 (0-24% control)
post-emergence herbicidal activity index ([5]; 4 WAT, 5.6 kg/h): 2 (50-74% control)
post-emergence herbicidal activity index ([6]; 2 WAT, 0.056 kg/h): 0 (0-24% control)
post-emergence herbicidal activity index ([6]; 2 WAT, 0.28 kg/h): 1 (25-49% control)
post-emergence herbicidal activity index ([6]; 2 WAT, 1.12 kg/h): 1 (25-49% control)
post-emergence herbicidal activity index ([6]; 2 WAT, 5.6 kg/h): 2 (50-74% control)
post-emergence herbicidal activity index ([6]; 4 WAT, 1.12 kg/h): 0 (0-24% control)
post-emergence herbicidal activity index ([6]; 4 WAT, 5.6 kg/h): 3 (75-99% control)
post-emergence herbicidal activity index ([7]; 2 WAT, 0.056 kg/h): 0 (0-24% control)
post-emergence herbicidal activity index ([7]; 2 WAT, 0.28 kg/h): 0 (0-24% control)
post-emergence herbicidal activity index ([7]; 2 WAT, 1.12 kg/h): 0 (0-24% control)
post-emergence herbicidal activity index ([7]; 2 WAT, 5.6 kg/h): 1 (25-49% control)
post-emergence herbicidal activity index ([7]; 4 WAT, 1.12 kg/h): 0 (0-24% control)
post-emergence herbicidal activity index ([7]; 4 WAT, 5.6 kg/h): 1 (25-49% control)
post-emergence herbicidal activity index ([8]; 5.6 kg/h): 3 (75-99% control)
post-emergence herbicidal activity index ([8]; 11.2 kg/h): 4 (100% control)
post-emergence herbicidal activity index ([9]; 5.6 kg/h): 2 (50-74% control)
post-emergence herbicidal activity index ([9]; 11.2 kg/h): 2 (50-74% control)
post-emergence herbicidal activity index ([10]; 2 WAT, 0.056 kg/h): 0 (0-24% control)
post-emergence herbicidal activity index ([10]; 2 WAT, 0.28 kg/h): 0 (0-24% control)
post-emergence herbicidal activity index ([10]; 2 WAT, 1.12 kg/h): 0 (0-24% control)
post-emergence herbicidal activity index ([10]; 2 WAT, 5.6 kg/h): 3 (75-99% control)
post-emergence herbicidal activity index ([10]; 4 WAT, 1.12 kg/h): 0 (0-24% control)
post-emergence herbicidal activity index ([10]; 4 WAT, 5.6 kg/h): 3 (75-99% control)
post-emergence herbicidal activity index ([11]; Table I, 4 WAT, 5.6 kg/h): 2 (50-74% control)
post-emergence herbicidal activity index ([11]; Table I, 4 WAT, 11.2 kg/h): 3 (75-99% control)
post-emergence herbicidal activity index ([11]; Table II, 2 WAT, 0.056 kg/h): 0 (0-24% control)
post-emergence herbicidal activity index ([11]; Table II, 2 WAT, 0.28 kg/h): 0 (0-24% control)
post-emergence herbicidal activity index ([11]; Table II, 2 WAT, 1.12 kg/h): 1 (25-49% control)
post-emergence herbicidal activity index ([11]; Table II, 2 WAT, 5.6 kg/h): 3 (75-99% control)
post-emergence herbicidal activity index ([11]; Table II, 4 WAT, 1.12 kg/h): 1 (25-49% control)
post-emergence herbicidal activity index ([11]; Table II, 4 WAT, 5.6 kg/h): 3 (75-99% control)
post-emergence herbicidal activity index ([12]; Table I, 4 WAT, 5.6 kg/h): 2 (50-74% control)
post-emergence herbicidal activity index ([12]; Table I, 4 WAT, 11.2 kg/h): 2 (50-74% control)
post-emergence herbicidal activity index ([12]; Table II, 2 WAT, 0.056 kg/h): 0 (0-24% control)
post-emergence herbicidal activity index ([12]; Table II, 2 WAT, 0.28 kg/h): 1 (25-49% control)
post-emergence herbicidal activity index ([12]; Table II, 2 WAT, 1.12 kg/h): 1 (25-49% control)
post-emergence herbicidal activity index ([12]; Table II, 2 WAT, 5.6 kg/h): 2 (50-74% control)
post-emergence herbicidal activity index ([12]; Table II, 4 WAT, 1.12 kg/h): 0 (0-24% control)
post-emergence herbicidal activity index ([12]; Table II, 4 WAT, 5.6 kg/h): 2 (50-74% control)
post-emergence herbicidal activity index ([13]; 5.6 kg/h): 2 (50-74% control)
post-emergence herbicidal activity index ([13]; 11.2 kg/h): 1 (25-49% control)
post-emergence herbicidal activity index ([14]; 2 WAT, 0.056 kg/h): 0 (0-24% control)
post-emergence herbicidal activity index ([14]; 2 WAT, 0.28 kg/h): 1 (25-49% control)
post-emergence herbicidal activity index ([14]; 2 WAT, 1.12 kg/h): 3 (75-99% control)
post-emergence herbicidal activity index ([14]; 2 WAT, 5.6 kg/h): 4 (100% control)
post-emergence herbicidal activity index ([14]; 4 WAT, 1.12 kg/h): 3 (75-99% control)
post-emergence herbicidal activity index ([14]; 4 WAT, 5.6 kg/h): 4 (100% control)
post-emergence herbicidal activity index ([15]; Table I, 4 WAT, 5.6 kg/h): 3 (75-99% control)
post-emergence herbicidal activity index ([15]; Table I, 4 WAT, 11.2 kg/h): 4 (100% control)
post-emergence herbicidal activity index ([15]; Table II, 2 WAT, 0.056 kg/h): 0 (0-24% control)
post-emergence herbicidal activity index ([15]; Table II, 2 WAT, 0.28 kg/h): 1 (25-49% control)
post-emergence herbicidal activity index ([15]; Table II, 2 WAT, 1.12 kg/h): 1 (25-49% control)
post-emergence herbicidal activity index ([15]; Table II, 2 WAT, 5.6 kg/h): 3 (75-99% control)
post-emergence herbicidal activity index ([15]; Table II, 4 WAT, 1.12 kg/h): 0 (0-24% control)
post-emergence herbicidal activity index ([15]; Table II, 4 WAT, 5.6 kg/h): 4 (100% control)
post-emergence herbicidal activity index ([16]; 2 WAT, 0.056 kg/h): 0 (0-24% control)
post-emergence herbicidal activity index ([16]; 2 WAT, 0.28 kg/h): 1 (25-49% control)
post-emergence herbicidal activity index ([16]; 2 WAT, 1.12 kg/h): 0 (0-24% control)
post-emergence herbicidal activity index ([16]; 2 WAT, 5.6 kg/h): 2 (50-74% control)
post-emergence herbicidal activity index ([16]; 4 WAT, 1.12 kg/h): 0 (0-24% control)
post-emergence herbicidal activity index ([16]; 4 WAT, 5.6 kg/h): 3 (75-99% control)
post-emergence herbicidal activity index ([17]; 2 WAT, 0.056 kg/h): 0 (0-24% control)
post-emergence herbicidal activity index ([17]; 2 WAT, 0.28 kg/h): 1 (25-49% control)
post-emergence herbicidal activity index ([17]; 2 WAT, 1.12 kg/h): 1 (25-49% control)
post-emergence herbicidal activity index ([17]; 2 WAT, 5.6 kg/h): 2 (50-74% control)
post-emergence herbicidal activity index ([17]; 4 WAT, 1.12 kg/h): 2 (50-74% control)
post-emergence herbicidal activity index ([17]; 4 WAT, 5.6 kg/h): 3 (75-99% control)
post-emergence herbicidal activity index ([18]; Table I, 4 WAT, 5.6 kg/h): 1 (25-49% control)
post-emergence herbicidal activity index ([18]; Table I, 4 WAT, 11.2 kg/h): 1 (25-49% control)
post-emergence herbicidal activity index ([18]; Table II, 2 WAT, 0.056 kg/h): 0 (0-24% control)
post-emergence herbicidal activity index ([18]; Table II, 2 WAT, 0.28 kg/h): 0 (0-24% control)
post-emergence herbicidal activity index ([18]; Table II, 2 WAT, 1.12 kg/h): 1 (25-49% control)
post-emergence herbicidal activity index ([18]; Table II, 2 WAT, 5.6 kg/h): 2 (50-74% control)
post-emergence herbicidal activity index ([18]; Table II, 4 WAT, 1.12 kg/h): 0 (0-24% control)
post-emergence herbicidal activity index ([18]; Table II, 4 WAT, 5.6 kg/h): 2 (50-74% control)
post-emergence herbicidal activity index ([19]; 2 WAT, 0.056 kg/h): 0 (0-24% control)
post-emergence herbicidal activity index ([19]; 2 WAT, 0.28 kg/h): 0 (0-24% control)
post-emergence herbicidal activity index ([19]; 2 WAT, 1.12 kg/h): 1 (25-49% control)
post-emergence herbicidal activity index ([19]; 2 WAT, 5.6 kg/h): 2 (50-74% control)
post-emergence herbicidal activity index ([19]; 4 WAT, 1.12 kg/h): 1 (25-49% control)
post-emergence herbicidal activity index ([19]; 4 WAT, 5.6 kg/h): 2 (50-74% control)
post-emergence herbicidal activity index ([20]; 5.6 kg/h): 4 (100% control)
post-emergence herbicidal activity index ([20]; 11.2 kg/h): 4 (100% control)

Source: patent US4508663A, “Process for preparing thiosulfenamide derivatives of N-phosphonomethylglycinonitriles” (Monsanto Company, priority 1983, dated 1985)
